Reference: PubChem BioAssay (NCI)
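Exposure lasted 48 hours, with cells grown in 96-well plates and compounds tested at five concentrations. GI50 is the concentration that inhibits growth by half. The concentration for full growth arrest is given as TGI.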

Assays:
Assay in all cases: inhibition of tumour cell growth, NCI panel, 48 h
[1] = tested on: NCI-H23 lung
[2] = tested on: OVCAR-5 ovarian
[3] = tested on: MALME-3M melanoma
[4] = tested on: CCRF-CEM leukemia
[5] = tested on: HT29 colon
[6] = tested on: PC-3 prostate
[7] = tested on: MDA-MB-231 breast
[8] = tested on: HL-60(TB) leukemia
[9] = tested on: CAKI-1 renal
[10] = tested on: RPMI-8226 leukemia

Row | Compound | GI50 [1] | TGI [1] | GI50 [2] | TGI [2] | GI50 [3] | TGI [3] | GI50 [4] | TGI [4] | GI50 [5] | TGI [5] | GI50 [6] | TGI [6] | GI50 [7] | TGI [7] | GI50 [8] | TGI [8] | GI50 [9] | TGI [9] | GI50 [10] | TGI [10]
1 | CNCCOc1nc2c3cnccc3cc(-c3cc(OC)c(OC)c(OC)c3)c2c2ccncc12 | 27.8 nM | 0.161 µM | 40.3 nM | 0.426 µM | 39.2 nM | 0.194 µM | < 13 nM | 1.1 µM | 37.2 nM | 1070 nM | 47.1 nM | 1.12 µM | 76.5 nM | 1.18 µM | < 15.3 nM | 0.0685 µM | 39 nM | 0.292 µM | 22.9 nM | 0.113 µM
2 | O=C(NO)c1cnc(N2CCN(S(=O)(=O)c3ccc4ccccc4c3)CC2)nc1 | 103 nM | 0.897 µM | 39.4 nM | 10.6 µM | 22.4 nM | 12.6 µM | 37.9 nM | > 64.7 µM | 34.4 nM | 2110 nM | 78 nM | > 36 µM | 199 nM | 5.28 µM | 45.7 nM | 29.8 µM | 114 nM | 0.328 µM | 20.8 nM | 17.6 µM
3 | NC(=O)NC(=O)C1CCCCC1C(=O)O (stereo not drawn) |  | > 100 µM |  | > 100 µM |  | > 100 µM |  | > 100 µM |  | > 100000 nM |  | > 100 µM |  | > 100 µM |  | > 100 µM |  | > 100 µM |  | > 100 µM
4 | C[C@@H]1CN2[C@H]3[C@@H]1CC[C@]31CCC(=O)O[C@]1(C)[C@@H]1CC[C@H]3CCC=C3[C@@H]12 | > 70000 nM | > 70 µM | > 70000 nM | > 70 µM | > 70000 nM | > 70 µM | > 70000 nM | > 70 µM | > 70000 nM | > 70000 nM | > 70000 nM | > 70 µM | > 70000 nM | > 70 µM | > 70000 nM | > 70 µM | > 70000 nM | > 70 µM | > 70000 nM | > 70 µM
5 | CCCCCCC1N=C(N)N=C(N)N1c1ccc(Cl)cc1 (stereo not drawn) | 5790 nM | 38 µM | 10700 nM | > 100 µM | 2100 nM | 21 µM | 4670 nM | 81.3 µM | 2660 nM | 16800 nM | 2900 nM | 52.8 µM | 11200 nM | 25.9 µM | 10100 nM | 28.3 µM | > 100000 nM | > 100 µM | 8620 nM | 30 µM
6 | CC(=O)OCC(=O)C1(O)C(C)CC2C3C=C(C)C4=Cc5c(cnn5-c5ccccc5)CC4(C)C3C(O)CC21C (stereo not drawn) | 2200 nM | 5.78 µM | 1100 nM | 3.92 µM | 1500 nM | 5.2 µM |  | > 100 µM | 971 nM | 2420 nM | 1690 nM | 5.83 µM | 1850 nM | 4.34 µM | 2440 nM | 9.74 µM | 2350 nM | 10.1 µM | < 34.5 nM | 
